Data taken from patent US12674178B2, “Methods for the evaluation of neutralizing antibodies for adeno-associated virus” (REGENTS OF THE UNIVERSITY OF MINNESOTA, priority 2020, dated 2026).

What was measured:
AAV8 = test: AAV8-Luc infection of HEK293 cells, luciferase readout; format: cell-based, adeno-associated virus; settings: at least one model system, cells pretreated
Procedure: (§1) HEK293 cells were infected with AAV8-Luciferase (Luc) or AAV2-Luc at an MOI of 5000 in the presence of several pharmacologically active drugs (TNFα+LPS, TNFα+IL-6, dorsomorphin (also known as “Compound C” or “CC”), SP600125, or rosiglitazone). The drugs were added 1 hour before injection with AAV-Luc. 24 hours after AAV-Luc was added, luciferase was detected, as further described in Example 2.
Method: Day 0: • 1. Remove culture medium (DMEM supplemented with 10% heat-inactivated FBS and 1% penicillin/streptomycin) from HEK293 cell culture, gently wash cells twice with 100 μL of PBS. Cells should be at low passage and approximately 80% confluent without being overgrown. Harvest cells by trypsinization and perform a cell count. • 2. Resuspend cells in complete DMEM culture medium at 200,000 cells/mL. Seed cells in 96-well plates with black or white walls and clear bottoms: 20,000 cells/well in 100 μL of complete media. • 3. Incubate cells overnight in C02 incubator at 37° C. Day 1: • 1. […] Each dilution was analyzed at least in triplicate. […] Set up spectrophotometer to read chemiluminescence. If the spectrophotometer is BioTek the read conditions are: 500 ms, gain 125-135, height of plate 3.75 mm. Add 50 μL of Bright Glo substrate to each well, incubate plate 3 min in the dark and then read. For maximal light intensity, samples should be measured within 15 minutes of reagent addition. […]

AAV2 = test: AAV2-Luc infection of HEK293 cells, luciferase readout; format: cell-based, adeno-associated virus; settings: AAV2, CC pre-treatment, 48 hours, MOI 2000
Procedure: as §1
Method: Day 0: • 1. Remove culture medium (DMEM supplemented with 10% heat-inactivated FBS and 1% penicillin/streptomycin) from HEK293 cell culture, gently wash cells twice with 100 μL of PBS. Cells should be at low passage and approximately 80% confluent without being overgrown. Harvest cells by trypsinization and perform a cell count. • 2. […] Each dilution was analyzed at least in triplicate. […] Set up spectrophotometer to read chemiluminescence. If the spectrophotometer is BioTek the read conditions are: 500 ms, gain 125-135, height of plate 3.75 mm. Add 50 μL of Bright Glo substrate to each well, incubate plate 3 min in the dark and then read. For maximal light intensity, samples should be measured within 15 minutes of reagent addition.
(§2) The dramatic improvement of AAV8 transduction in vitro in the presence of CC prompted test to determine if similar effect could be achieved for other AAV serotypes. The transduction efficiency of ten common AAV serotypes at MOI 2000 vg/cell was analyzed. […]

AAV10 = test: AAV10/Luc infection of HEK293 cells, luciferase readout; format: cell-based, adeno-associated virus; settings: AAV10, CC pre-treatment, MOI 2000
Procedure: Method: Day 0: • 1. Remove culture medium (DMEM supplemented with 10% heat-inactivated FBS and 1% penicillin/streptomycin) from HEK293 cell culture, gently wash cells twice with 100 μL of PBS. Cells should be at low passage and approximately 80% confluent without being overgrown. Harvest cells by trypsinization and perform a cell count. • 2. Resuspend cells in complete DMEM culture medium at 200,000 cells/mL. Seed cells in 96-well plates with black or white walls and clear bottoms: 20,000 cells/well in 100 μL of complete media. • 3. Incubate cells overnight in C02 incubator at 37° C. Day 1: • 1. Confirm microscopically that cells are 50-80% confluent. • 2. […] Each dilution was analyzed at least in triplicate. […] Set up spectrophotometer to read chemiluminescence. If the spectrophotometer is BioTek the read conditions are: 500 ms, gain 125-135, height of plate 3.75 mm. Add 50 μL of Bright Glo substrate to each well, incubate plate 3 min in the dark and then read. For maximal light intensity, samples should be measured within 15 minutes of reagent addition.
as §2

HEK293 cells = test: Cytotoxicity of the drug to the cells to be infected; format: cell-based

c1cc(-c2cnn3cc(-c4ccc(OCCN5CCCCC5)cc4)cnc23)ccn1 [dorsomorphin]
CC pretreatment concentration giving statistically significant increase in activity of AAV/Luc (AAV8): at least 2.5 μM
luciferase activity, times higher than background (AAV2): more than 1000 times
luciferase activity, times higher than background (AAV10): 8 times
cytotoxic effects (HEK293 cells; HEK293 infected with AAV2/AAV8): without cytotoxic effects
CC concentration that became toxic to cells (HEK293 cells; at least one model system): higher than 20 μM
